# Data reported in patent US20090022729A1, “METHODS AND COMPOSITIONS FOR TREATING CARDIAC DYSFUNCTIONS” (priority 2007, published 2009).
# Legend:
# [1] = molecular target: T1, PAR-1 (Homo sapiens, UniProt P25116); conditions: cited from earlier work
# T1 sequence (P25116 22-425): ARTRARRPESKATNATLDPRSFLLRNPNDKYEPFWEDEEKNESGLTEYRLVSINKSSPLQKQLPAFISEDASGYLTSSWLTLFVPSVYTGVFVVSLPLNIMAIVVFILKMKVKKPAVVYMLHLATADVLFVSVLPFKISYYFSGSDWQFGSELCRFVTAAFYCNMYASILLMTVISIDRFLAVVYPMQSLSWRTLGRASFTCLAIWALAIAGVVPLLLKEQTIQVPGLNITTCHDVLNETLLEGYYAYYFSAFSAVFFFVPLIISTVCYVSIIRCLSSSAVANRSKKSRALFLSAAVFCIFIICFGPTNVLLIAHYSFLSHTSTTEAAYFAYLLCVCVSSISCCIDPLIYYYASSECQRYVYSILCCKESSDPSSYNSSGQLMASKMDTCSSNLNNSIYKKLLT
# [2] = molecular target: T1, PAR-1; conditions: cited from earlier work; remark: listed apart in the source
# [3] = molecular target: T2, PAR2 (Homo sapiens, UniProt P55085); conditions: cited from earlier work
# T2 sequence (P55085 26-397): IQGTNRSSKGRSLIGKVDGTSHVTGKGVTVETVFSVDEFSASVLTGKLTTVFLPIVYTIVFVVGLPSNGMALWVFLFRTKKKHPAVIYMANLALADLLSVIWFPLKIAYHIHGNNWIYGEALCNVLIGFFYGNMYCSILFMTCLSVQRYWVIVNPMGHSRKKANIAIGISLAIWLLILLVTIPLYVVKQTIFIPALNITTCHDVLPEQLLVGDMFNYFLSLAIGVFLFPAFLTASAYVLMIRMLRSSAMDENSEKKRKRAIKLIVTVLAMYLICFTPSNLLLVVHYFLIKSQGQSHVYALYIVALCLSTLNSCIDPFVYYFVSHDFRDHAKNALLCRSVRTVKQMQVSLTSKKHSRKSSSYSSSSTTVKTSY
# [4] = molecular target: T3, PAR3 (Homo sapiens, UniProt O00254); conditions: cited from earlier work
# T3 sequence (O00254 22-374): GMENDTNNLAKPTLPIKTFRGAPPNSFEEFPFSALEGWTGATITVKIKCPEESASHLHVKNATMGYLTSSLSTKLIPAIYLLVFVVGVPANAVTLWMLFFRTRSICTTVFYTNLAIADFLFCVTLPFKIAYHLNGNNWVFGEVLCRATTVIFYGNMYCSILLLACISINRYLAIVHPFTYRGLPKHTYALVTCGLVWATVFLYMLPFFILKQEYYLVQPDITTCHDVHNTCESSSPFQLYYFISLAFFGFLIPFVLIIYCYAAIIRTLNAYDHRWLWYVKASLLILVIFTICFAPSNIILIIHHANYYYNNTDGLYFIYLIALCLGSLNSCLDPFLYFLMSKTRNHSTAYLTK
# [5] = molecular target: T4, PAR4 (Homo sapiens, UniProt Q96RI0); conditions: cited from earlier work
# T4 sequence (Q96RI0 18-385): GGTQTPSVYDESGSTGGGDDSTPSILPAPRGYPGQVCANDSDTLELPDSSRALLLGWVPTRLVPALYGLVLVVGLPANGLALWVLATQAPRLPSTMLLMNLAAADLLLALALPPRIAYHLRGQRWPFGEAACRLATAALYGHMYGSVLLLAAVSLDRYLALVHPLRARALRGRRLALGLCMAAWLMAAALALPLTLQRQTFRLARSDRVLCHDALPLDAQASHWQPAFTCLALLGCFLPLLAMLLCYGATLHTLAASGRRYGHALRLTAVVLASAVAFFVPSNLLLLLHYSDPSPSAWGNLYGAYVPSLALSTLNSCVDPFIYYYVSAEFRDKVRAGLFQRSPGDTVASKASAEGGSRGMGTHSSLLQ
# [6] = molecular target: thrombin (Homo sapiens, UniProt P00734); conditions: cited from earlier work
# [7] = molecular target: T5, thrombin (Mus musculus, UniProt P19221); assay: short-term cardiac I/R injury model (30 minutes of ischemia and 2 hours of reperfusion); type: in vivo; conditions: WT mice, hirudin vs saline, FIG. 1A
# T5 construct: from tissue; host or cells: wild-type mice in vivo (blood / injured myocardium)
# Description: Cardiac I/R injury models. For the short-term I/R model (30 minutes of ischemia and 2 hours of reperfusion), the surgical protocol and infarct size determination were performed as described in Palazzo et al. (Am. J. Physiol. 275:H2300-H2307 (1998)) with some modifications. Briefly, intraperitoneal injection of pentobarbital (100 mg/kg) (Abbott Laboratories, Abbott Park, Ill.) was used for anesthesia. Mice were orally intubated to provide artificial ventilation (0.3 mL tidal volume, 120 breaths/minute). The left anterior descending coronary artery was occluded with a 7-0 silk suture (U.S. Surgical Corp., Norwalk, Conn.) passed through PE tubing (U.S. Surgical Corp.) to make a Rumel snare. After 30 minutes of ischemia, the snare was released and the heart was reperfused for 2 hours. Finally, the artery was reoccluded and 4% Evans Blue dye was injected into the aortic root to delineate the area-at-risk (AAR) from not at-risk myocardium (blue). […] The LV, AAR and infarct areas were traced and calculated by computer planimetry (Image J, version 1.21). Infarct volumes were calculated as: [(A1×W1)+(A2×W2)+(A3×W3)+(A4×W4)+(A5×W5)], where A is the area of infarct for the slice denoted by the subscript and W is the weight of the respective section.
Compound,PAR1 antagonist activity and selectivity [1],calcium mobilization [2],effect on PAR2 [3],effect on PAR3 [4],effect on PAR4 [5],inhibition of thrombin activity [6],infarct size [7],size of the area at-risk [7]
"NCC[C@H](NC(=O)[C@H](Cc1ccc(F)c(F)c1)NC(=O)Nc1ccc2c(CN3CCCC3)cn(Cc3c(Cl)cccc3Cl)c2c1)C(=O)NCc1ccccc1 [RWJ-56110, (αS)—N-[(1S)-3-amino-1-[[(phenylmethyl)amino]carbonyl]propyl]-α-[[[[[1-(2,6-dichlorophenyl)methyl]-3-(1-pyrrolidinylmethyl)-1H-indol-6-yl]amino]carbonyl]amino]-3,4-difluorobenzenepropanamide]","potent, selective PAR-1 antagonist",interferes with calcium mobilization,does not affect,does not affect,does not affect,"does not affect PAR2, PAR3, or PAR4 or inhibit thrombin activity",,
hirudin,,,,,,,decreased,Neither hirudin treatment nor PAR1 deficiency affected
